Reference: patent US10501800B2, “Breast cancer prognosis” (Regents of the University of Minnesota, priority 2012, dated 2019)
“Also recorded” adds a separate entry of the source.

How the values were obtained:
PR protein expression = test: Western blotting for PR in doxorubicin-treated T47D cells expressing inducible PR (PARP cleavage assay); type: cell-based, human; settings: doxorubicin 8 uM, 24 h
[1] = test system: PR target genes (CHN2, RGS2, ACOT6) in BT-474 human breast cancer cells; test: RT-qPCR of PR target genes in BT-474 cells, with or without MEK inhibitor; type: cell-based
Method: For reverse transcription quantitative polymerase chain reaction (RT-qPCR) assays, 5×10^5 cells/well were plated in 6-well dishes, serum starved in modified IMEM for 1 day before treatments (see individual figures). RNA was extracted using TriPure reagent (Roche, catalog #11667157001) and cDNA was created using the Transcriptor cDNA first-strand cDNA synthesis kit (Roche, catalog #04897030001). Relative expression levels were determined by qPCR assays performed on a Roche LightCycler II using SYBR green master-mix (Roche, catalog #04887352001). Target gene quantification levels were normalized to the expression of standard housekeeper genes: TBP, ACTB, and/or GAPDH. For cells expressing inducible PR, the protocol was the same as above, except prior to ligand treatments, the cells were induced with AP21967 (10^−9 M) for 2 d.
For experiments using MEK inhibitors, BT-474 cells were plated in […] dishes at 5×10^5 cells/well. One day later, the cells were washed and serum starved in modified IMEM for 1d. These cells were pre-treated with the MEK inhibitor U0126 (5 uM, EMD Chemicals, catalog #662005) for 30 min R5020 (10^−8 M) and/or RU486 (10^−7 M) was then added to cell culture wells for 6 h before RNA/protein isolation and RT-qPCR/western blotting was performed, as described above.

[2] = test system: PR Ser294 phosphorylation; test: Western blotting for PR Ser294 phosphorylation in BT-474 cells; type: cell-based, human
Method: (§1) T47Dco parental cell lines were characterized previously (Horwitz et al., 1982). T47D cells stably expressing PR were created by molecular cloning of cDNAs encoding either WT, K388R, S294A, or K388R/S294A PR into a pIRES-neo3 expression vector (Clontech, catalog #631621), followed by transfection of vectors into T47D-Y cells (Sartorius et al., 1994) using FuGENE HD (Roche, catalog #04709713001). Single-cell clones were expanded under high G418 selection (500 ug/ml) and maintained in low G418 selection (200 ug/ml) (EMD Chemicals, catalog #345810). These cells were maintained in complete minimal essential medium (cMEM) supplemented with 5% fetal bovine serum (FBS), 1% non-essential amino acids (NEAA), 1% penicillin/streptomycin, 6 ng/ml insulin (CellGro, catalog #10-010-CV). T47D cells expressing inducible PR were described previously (Hagan et al., 2011). Inducible PR expression was achieved by adding AP21967 (10^−9 M, Ariad Pharmaceuticals, Cambridge, Mass.) to cell culture medium for a minimum treatment time of 2 d. MCF-7 cell lines expressing PR were created by transfection of pIRES-neo3 vectors containing cDNA inserts encoding either WT or KR PR into cells using FuGENE HD. Single-cell clones were expanded under high G418 selection and maintained in low G418 selection. […]

[3] = test system: RGS2 expression in T47D cells expressing WT PR or KR PR; test: RT-qPCR of PR target genes in T47D cells stably expressing WT or KR PR; type: cell-based, human; settings: R5020 6 h
Method: as §1, with “2011).” for “2011). Inducible PR expression was achieved by adding AP21967 (10^−9 M, Ariad Pharmaceuticals, Cambridge, Mass.) to cell culture medium for a minimum treatment time of 2 d. MCF-7 cell lines expressing PR were created by transfection of pIRES-neo3 vectors containing cDNA inserts encoding either WT or KR PR into cells using FuGENE HD. Single-cell clones were expanded under high G418 selection and maintained in low G418 selection.”
For reverse transcription quantitative polymerase chain reaction (RT-qPCR) assays, 5×10^5 cells/well were plated in 6-well dishes, serum starved in modified IMEM for 1 day before treatments (see individual figures). […] Relative expression levels were determined by qPCR assays performed on a Roche LightCycler II using SYBR green master-mix (Roche, catalog #04887352001). Target gene quantification levels were normalized to the expression of standard housekeeper genes: TBP, ACTB, and/or GAPDH. […]

[4] = test system: T47D cells expressing inducible PR (iWT, iKR); test: MTT proliferation assay in T47D cells expressing inducible PR; type: cell-based, human; settings: cells expressing iWT or iKR PRs vs un-induced or untreated counterparts; R5020
Method: (§2) Cell proliferation was measured using MTT assays (3-[4,5-dimethylthiazol-2-yl]-2,5-diphenyltetrazolium bromide, Sigma catalog #M2128). In 24-well plates, 1×10^4 cells/well were plated in cMEM (inducible PR expression was induced with AP21967 (10^−9 M) for 2 days), cells were washed and steroid starved in modified IMEM supplemented with 5% dextran-coated charcoal-treated (DCC) FBS for 1 day before the addition of R5020 (10^−8 M). At days 0, 2, 4, 6, cell proliferation was determined by adding 60 ul MTT (5 mg/ml) to each 0.5 ml cell culture well for 3 hours, medium was carefully removed and solublization solution (90% v/v DMSO/PBS) was added to lyse the cells. Lysate absorbance (650 and 570 nm) was measured using a plate reader. 650 nm measurements were subtracted from 570 nm measurements and sample means were normalized to day zero.

[5] = test system: PR target genes (MSX2, RGS2, MAP1A, PDK4) in MCF-7 cells; test: RT-qPCR of PR target genes in MCF-7 cells stably expressing WT or KR PR; type: cell-based, human; settings: R5020 10^−8 M plus RU486 10^−7 M, 6 h
BT-474 cells = test: MTT proliferation assay in BT-474 cells; type: cell-based, human; settings: MTT assays over six days in vitro; data not shown
Method: as §2

[6] = test system: PR target genes in T47D cells expressing WT PR, SUMO-deficient PR (KR) or empty vector; test: Gene expression profiling (Illumina HT-12v4) of T47D cell lines treated with progesterone or antiprogestins; type: cell-based, human
Method: T47D cells stably expressing pIRES-neo3 empty vector, WT or KR PR were serum starved in modified IMEM (Gibco, catalog #A10488) for 1 day, treated with R5020 (10^−8 M) or vehicle control for 6 h before RNA extraction using a RNeasy kit (QIAgen, catalog #74104). Six h of progestin treatment allowed for substantial PR-dependent gene expression as compared to prior studies (Jacobsen et al., 2005; Richer et al., 2002). DNase I treated (QIAgen, catalog #79254) RNA samples from duplicate experiments were prepared for expression analysis using the Illumina HT-12v4 bead chip platform according to manufacture's protocols. Data were analyzed within R software using the Bioconductor (Gentleman et al., 2004) package called lumi where raw intensities were log2 transformed and quantile normalized. Differentially expressed genes were analyzed using the limma package, where empirical Bayes was used to better estimate the variance of the genes. Gene expression data presented contain log2 normalized intensities and biological comparisons presented (e.g. R5020/vehicle) contain log2 fold change with the Benjamini and Hochberg (BH) adjusted P value (Benjamini and Hochberg, 1995). To generate the heat map in FIG. 1C, unsupervised hierarchical clustering of genes was carried out using heatmap. 2 function in the R package gplots. Clustering was performed using Euclidean distance and complete linkage. Rows were scaled to have mean zero and standard deviation equal to one.
Gene expression profiles in T47D cell lines treated with antiprogestins were obtained using identical methods as described above, except for these notable differences. After serum starvation, cells stably expressing empty vector, WT, or KR PR were treated for 6 hours under one of eight possible conditions: (1) ethanol (vehicle control), (2) progesterone (10^−8 M), (3) RU486 (10^−7 M), (4) aglepristone (10^−7 M), (5) onapristone (10^−7 M), (6) RU486 (10^−7 M) plus progesterone (10^−8 M), (7) aglepristone (10^−7 M) plus progesterone (10^−8 M), or (8) onapristone (10^−7 M) plus progesterone (10^−8 M). Gene expression levels were measured, normalized, analyzed, and heat maps were generated using the methods described above.
Raw microarray data from two independent microarray experiments (both performed using the Illumina HT-12v4 platform described above) were combined and normalized together within R software using the Bioconductor (Gentleman et al., 2004) package called lumi where raw intensities were log 2 transformed and quantile normalized.
Sample Sizes & Composition: For the first analysis, two KR cell replicates were used that had been stimulated with R5020 a synthetic progestin in the first experiment and three KR cell replicates that had been stimulated with progesterone in the second experiment. The same was accomplished regarding the corresponding WT cell replicates. Pertaining to the first analysis, therefore, a sample size of n=5 was used for each of the two groups (KR & WT). Regarding the second analysis, we used three KR cell replicates that had been co-treated with progesterone plus onapristone in the second experiment; and we used three WT cell replicates that had been co-treated with progesterone plus onapristone also in the second experiment (n=3 for each of the two groups). Regarding the third analysis, we used three KR cell replicates that had been co-treated with progesterone plus RU486 in the second experiment; and we used three WT cell replicates that had been co-treated with progesterone plus RU486 also in the second experiment (n=3 for each of the two groups). Regarding the fourth analysis, three KR cell replicates was used that had been co-treated with progesterone plus onapristone; and three WT cell replicates were used that had been treated with vehicle control (ethanol) (n=3 for each of the two groups). […]

BT-474 tumor = settings: xenograft models; cited from earlier work
breast cancer = settings: in vivo; cited from earlier work
[7] = pre-treatment with U0126 5 uM for 30 min

## COc1cccc2c1C(=O)c1c(O)c3c(c(O)c1C2=O)C[C@@](O)(C(=O)CO)C[C@@H]3O[C@H]1C[C@H](N)[C@H](O)[C@H](C)O1 [Doxorubicin, doxorubicin]
PR protein expression
  WT and KR PR protein expression: reduced

## CCC(=O)[C@@]1(C)CC[C@H]2[C@@H]3CCC4=CC(=O)CCC4=C3CC[C@@]21C [R5020]
[1]; R5020 10^−8 M, 6 h
  ACOT6 expression: induced
  upregulation of CHN2 mRNA: 17 fold
  upregulation of RGS2 mRNA: 26 fold
[2]; R5020 treatment
  PR-B Ser294 phosphorylation: elevated
[3]; T47D cells expressing KR PR
  RGS2 expression response to R5020: ~20 fold
[3]; T47D cells expressing WT PR
  RGS2 expression response to R5020: ~2 fold
[4]
  cell growth: grew faster

## CC#C[C@]1(O)CC[C@H]2[C@@H]3CCC4=CC(=O)CCC4=C3[C@@H](c3ccc(N(C)C)cc3)C[C@@]21C [RU486, (10S,11S,14S,15S,17R)-17-[4-(dimethylamino)phenyl]-14-hydroxy-15-methyl-14-(prop-1-yn-1-yl)tetracyclo[8.7.0.0^ {2,7}.0^{11,15}]heptadeca-1,6-dien-5-one]
[5]
  R5020-induced mRNA expression of MSX2, RGS2, MAP1A and PDK4: completely abolished
[1]; R5020 10^−8 M plus RU486 10^−7 M, 6 h
  R5020-induced expression of CHN2, RGS2 and ACOT6: entirely blocked
BT-474 cells
  BT-474 cell proliferation: significantly blocks
[6]; T47D cells expressing SUMO-deficient PR (KR), antiprogestin 10^−7 M alone or plus progesterone 10^−8 M, 6 h
  expression of progesterone-regulated PR target genes: caused many PR target genes to become upregulated
[6]; both cell lines co-treated with progesterone plus the antiprogestin
  number of genes significantly differentially expressed between KR and WT cells: 7 genes
[6]; both cell lines co-treated with progesterone plus the antiprogestin, with the exception of one gene (CDH10)
  significant differential expression of the 15 biomarker genes between KR and WT cells: completely annulled
[6]; cells expressing hyperactive / SUMO-deficient PR (KR)
  agonistic activity: substantial agonistic activity; also recorded: agonistic properties
BT-474 tumor
  BT-474 tumor growth: dramatically inhibits
Breast cancer
  outcome of phase II clinical trials as a breast cancer treatment: unsuccessful

## N#CC(=C(/N)Sc1ccccc1N)/C(C#N)=C(\N)Sc1ccccc1N [U0126]
[1]; MEK kinase inhibition, U0126 5 uM
  R5020-induced ACOT6 expression (control gene): completely insensitive
[1]; [7]
  R5020-induced CHN2 and RGS2 expression: partially, but significantly, diminished
[2]; [7]
  R5020-induced PR Ser294 phosphorylation: blocked
